Test in all cases: DTP human tumour cell line panel, 48 h
Test [1] deals with 786-0 renal.
Test [2] relates to A498 renal.
The test system of test [3] is ACHN renal.
The test system of test [4] is BT-549 breast.
In test [5] the test system is HOP-62 NSCLC.
For test [6], the system named is HT29 colon.
Test [7] deals with RXF 393 renal.
Test [8] relates to SF-295 CNS.
The subject of test [9] is SF-539 CNS.
Test [10] relates to HS 578T breast.
In test [11] the test system is MDA-N.

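How tested: cells in 96-well plates exposed to compound for 48 hours at five concentrations. Here, GI50 denotes the concentration required for 50% inhibition of growth. At the TGI there is no net growth.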

This note sets out measurements from PubChem BioAssay (NCI).

Usually TGI stands for the concentration giving total growth inhibition. A low value points to more potent growth arrest. The GI50 is the concentration that inhibits growth by half.

Take `C(CCCCc1nnc(N2CCCCC2)o1)CCCc1nnc(N2CCCCC2)o1`: the TGI in test [1], in test [2], in [3], in test [4], in [5] and in [6] was more than 100 µM throughout. The TGI in test [7], in [8] and in test [9] was more than 100 µM throughout.

As to `COC(=O)[C@H]1CO[C@H]2C/C(C)=C/CC/C(C)=C/CC[C@@]3(C)O[C@@H]3C[C@H]21`, the TGI in [1] is more than 50 µM; in [2], more than 50 µM; in test [3], more than 50 µM; in [4], 33.8 µM; in test [5] it was more than 50 µM; in test [10], 36.5 µM. The TGI is more than 50 µM in test [6], 42.6 µM in [7], more than 50 µM in test [8] and more than 50 µM in test [9].

Take `CCOC(=O)c1cnc2oc3ccc(O)cc3c2c1-c1ccccc1`: the TGI in [1], in test [2], in test [3], in [10], in test [6] and in test [11] was more than 100 µM throughout. Moreover, the total growth inhibition concentration (TGI) in [7] was more than 100 µM; in [8], more than 100 µM; in test [9], 46.5 µM.

Regarding `O=C1c2cc3c(cc2CC12Cc1ccc4c(c1C2=O)CCCC4)CCCC3` (configuration not stated), the TGI in test [1] is 46.1 µM; in [2], 59.7 µM; in [3] it was more than 100 µM; in test [5], more than 100 µM; in test [10] it was more than 100 µM; in test [6], more than 100 µM. Further, the concentration for total growth inhibition (TGI) in [11], in test [7], in test [8] and in test [9] was more than 100 µM each time.

In the case of `COc1ccc(-c2cc(-c3ccc(Nc4ccnc5cc(Cl)ccc45)cc3)[nH]c(=O)c2C#N)c2ccccc12`, the total growth inhibition concentration (TGI) in test [1] is 18.3 µM; in test [2], 49.7 µM; in test [3], more than 100 µM; in test [4], 71.7 µM; in [5], more than 53.9 µM; in [11], 6.02 µM. For the same compound, the TGI in [7] was 28.3 µM; in [8], more than 50.1 µM.

Consider `C[C@H]1C[C@H]2[C@@H]3C(C)(C)O[C@]4(O)C(=O)[C@]5(O)[C@@H](C)CC[C@H]1[C@]25C(=O)[C@]34C`, for which the TGI is more than 100 µM in test [1]; 87 µM in [2]; 72.6 µM in test [3]; more than 100 µM in [5]; more than 100 µM in test [10]; 70.3 µM in [6]. The TGI was more than 100 µM in [11], 77.5 µM in [8] and more than 100 µM in [9].

Take `Oc1c([Si](c2ccccc2)(c2ccccc2)c2ccccc2)cc2ccccc2c1-c1c(O)c([Si](c2ccccc2)(c2ccccc2)c2ccccc2)cc2ccccc12`: the concentration for total growth inhibition (TGI) in test [1], in test [2], in [3], in test [5], in test [10] and in test [6] was more than 100 µM in each case. In addition, the total growth inhibition concentration (TGI) in test [11], in [7], in test [8] and in test [9] was more than 100 µM each time.

Turning to `CCN(C(=S)N[C@H](C(=O)N[C@@H](C)C(=O)OC)C(C)C)c1ccccc1`, the total growth inhibition concentration (TGI) in [1], in test [3], in test [4], in [5], in test [6] and in test [11] was more than 100 µM each time. Also, the total growth inhibition concentration (TGI) in test [7] was more than 100 µM; in test [8], more than 100 µM; in test [9], 84.3 µM.

Take `COC(=O)C(CSSC[C@H](N/C(C)=C/C(C)=O)C(=O)OC)N/C(C)=C/C(C)=O` (some centres not stated): the concentration for total growth inhibition (TGI) in test [1] was more than 100 µM; in test [2] it was more than 100 µM; in test [3], 17.1 µM; in test [5], more than 100 µM; in [10] it was 52.9 µM; in test [6], more than 100 µM. In addition, the TGI in [11] was more than 100 µM; in test [7], 52.7 µM; in [8], more than 100 µM; in [9], more than 100 µM.

For `CC1(C)C2C=CC1(C)C1(CC2)OCCO1` (configuration not stated), the TGI in test [1], in [2], in [3], in test [5], in [10] and in test [6] was more than 100 µM throughout. Further, the concentration for total growth inhibition (TGI) in test [11], in test [7], in [8] and in test [9] was more than 100 µM throughout.

For the compound `O=c1c2cc(I)ccc2nc(-c2cccs2)n1-c1ccc(O)cc1`, the TGI in [1] is 29.8 µM; in test [3] it was 22.5 µM; in test [4], 27.9 µM; in test [5], 32.4 µM; in [6], 27.1 µM; in test [11], 62.8 µM. Further, the TGI is 30.8 µM in test [7], 27.4 µM in test [8] and 14.5 µM in test [9].

For the compound `COc1ccc(C(=O)/C=C/c2c(Cl)c3c(c(OC)c2Cl)OCC(=O)N3)cc1`, the GI50 in [2] is 3.07 µM; in test [3], 1.79 µM; in [5] it was 2.8 µM; in test [10] it was 4.43 µM; in [7] it was 1.79 µM; in [8], 3.23 µM. In addition, the GI50 in test [9] was 2.21 µM. In addition, the TGI in test [2] was determined as 37.2 µM; in test [3], 3.64 µM; in test [5], 6.96 µM; in [10] it was 50.4 µM; in [7], 3.54 µM; in test [8], 32.7 µM. Further, in test [9], the TGI was 4.85 µM.

Regarding `COc1ccc(NC(C)=O)cc1N1C(=O)/C(=C\c2cc(OC)c(OC)c(OC)c2)SC1c1ccccc1` (configuration not stated), the TGI in test [1], in test [2], in test [3], in [4], in test [5] and in test [6] was more than 100 µM throughout. Moreover, the TGI was 72.3 µM in test [11], more than 100 µM in test [7], more than 100 µM in test [8] and more than 100 µM in test [9].
